# Source: patent US10336702B2, “Pharmaceutically active compounds” (BERGENBIO ASA, priority 2015, dated 2019)
# Tests used:
# [1] = target: T1, Akt2 (Homo sapiens, UniProt P31751); experiment: Akt activation assay (PDK1-mediated activation, LANCE Ultra crosstide TR-FRET), Akt2; type: biochemical; settings: read-out: Biological Assay 1 IC50 (nM) Akt2
# T1 construct: unspecified tag, removed (detagged) (cleaved yes); purchased SignalChem and Proteros (Akt2); Merck Millipore (PDK1) 14-452 (PDK1); none given for Akt2
# In short: (§1)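 Compound + Akt preinc.; start w/ PDK1 5 nM, DOPS/DOPC 5.5 μM each, PIP3 0.55 μM, ATP 100 μM, Ulight-crosstide 100 nM; HEPES pH 7.5, 10 mM MgCl2, 2 mM DTT, 1% DMSO; 30 min; EDTA stop; Eu-Ab TR-FRET; 4-PL IC50.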
# [2] = target: T2, p-Akt2 in WM115 cells (Homo sapiens, UniProt P31751); experiment: Phospho-Akt cellular SureFire assay, p-Akt2 in WM115 cells; type: cell-based; settings: insulin stimulated, read-out: Biological Assay 2 IC50 (nM) Akt2 WM115
# T2 construct: SureFire assays to detect cellular p-Akt1, p-Akt2 and p-Akt3 levels in WM115 cells (Akt2/3) and LNCaP cells (Akt1); endogenous in cells; host or cells: WM115 (ECACC 91061232), insulin-stimulated
# In short: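 WM115 cells in 0.1% FBS medium stimulated 10 min with 100 nM insulin, then exposed to compound for 15 min at 37° C (0.3% DMSO final). Lysates assayed by AlphaScreen with anti-(pThr308)Akt and isoform-specific total Akt2 antibodies; IC50 from 4-parameter fit.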
# [3] = target: T3, p-Akt1 in LNCaP cells (Homo sapiens, UniProt P31749); experiment: Phospho-Akt cellular SureFire assay, p-Akt1 in LNCaP cells; type: cell-based; settings: read-out: Biological Assay 2 IC50 (nM) Akt1 LNCaP
# T3 construct: SureFire assays to detect cellular p-Akt1, p-Akt2 and p-Akt3 levels in WM115 cells (Akt2/3) and LNCaP cells (Akt1); endogenous in cells; host or cells: LNCaP (ECACC 89110211)
# In short: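 LNCaP cells, 5×10^4/well, seeded overnight, switched to 0.1% FBS medium without insulin stimulation, then compound for 15 min at 37 °C (0.3% DMSO). Lysate p-Akt1 (pThr308) by AlphaScreen SureFire, two 2 h incubations at room temperature; IC50 by 4-parameter fit.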
# [4] = target: T4, Akt3 (Homo sapiens, UniProt Q9Y243); experiment: Akt activation assay (PDK1-mediated activation, LANCE Ultra crosstide TR-FRET), Akt3; type: biochemical; settings: read-out: Biological Assay 1 IC50 (nM) Akt3
# T4 construct: unspecified tag, removed (detagged) (cleaved yes); purchased SignalChem and Proteros (Akt3); Merck Millipore (PDK1) 14-452 (PDK1); none given for Akt3
# In short: as §1
# [5] = target: T5, p-Akt3 in WM115 cells (Homo sapiens, UniProt Q9Y243); experiment: Phospho-Akt cellular SureFire assay, p-Akt3 in WM115 cells; type: cell-based; settings: insulin stimulated, read-out: Biological Assay 2 IC50 (nM) Akt3 WM115
# T5 construct: SureFire assays to detect cellular p-Akt1, p-Akt2 and p-Akt3 levels in WM115 cells (Akt2/3) and LNCaP cells (Akt1); endogenous in cells; host or cells: WM115 (ECACC 91061232), insulin-stimulated
# In short: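 WM115 cells were serum-reduced to 0.1% FBS, stimulated with 100 nM insulin for 10 min, then exposed to compound (0.3% DMSO) for 15 min at 37 °C. Lysates were assayed for Thr308-phosphorylated Akt3 by AlphaScreen SureFire using an isoform-specific total Akt3 capture antibody. IC50 was derived from a 4-parameter fit.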
# [6] = target: T6, Akt1 (Homo sapiens, UniProt P31749); experiment: Akt activation assay (PDK1-mediated activation, LANCE Ultra crosstide TR-FRET), Akt1; type: biochemical; settings: read-out: Biological Assay 1 IC50 (nM) Akt1
# T6 construct: unspecified tag, removed (detagged) (cleaved yes); purchased SignalChem and Proteros (Akt1); Merck Millipore (PDK1) 14-452 (PDK1); none given for Akt1
# In short: as §1
# T2 sequence (P31751 whole entry): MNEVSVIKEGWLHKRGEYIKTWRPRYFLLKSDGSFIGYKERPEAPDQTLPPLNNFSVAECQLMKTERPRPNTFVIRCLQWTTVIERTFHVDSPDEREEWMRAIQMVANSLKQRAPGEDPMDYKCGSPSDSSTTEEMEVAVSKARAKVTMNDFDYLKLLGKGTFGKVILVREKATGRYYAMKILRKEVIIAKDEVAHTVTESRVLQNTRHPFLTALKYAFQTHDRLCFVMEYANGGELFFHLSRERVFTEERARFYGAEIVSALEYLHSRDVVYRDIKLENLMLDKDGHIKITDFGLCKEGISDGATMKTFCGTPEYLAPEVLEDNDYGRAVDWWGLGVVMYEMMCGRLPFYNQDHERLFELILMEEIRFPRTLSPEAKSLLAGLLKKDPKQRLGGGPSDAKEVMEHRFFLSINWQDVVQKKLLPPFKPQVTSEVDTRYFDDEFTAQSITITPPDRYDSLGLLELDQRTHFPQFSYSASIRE
# T1 sequence (P31751 whole entry): as above
# T4 sequence (Q9Y243 whole entry): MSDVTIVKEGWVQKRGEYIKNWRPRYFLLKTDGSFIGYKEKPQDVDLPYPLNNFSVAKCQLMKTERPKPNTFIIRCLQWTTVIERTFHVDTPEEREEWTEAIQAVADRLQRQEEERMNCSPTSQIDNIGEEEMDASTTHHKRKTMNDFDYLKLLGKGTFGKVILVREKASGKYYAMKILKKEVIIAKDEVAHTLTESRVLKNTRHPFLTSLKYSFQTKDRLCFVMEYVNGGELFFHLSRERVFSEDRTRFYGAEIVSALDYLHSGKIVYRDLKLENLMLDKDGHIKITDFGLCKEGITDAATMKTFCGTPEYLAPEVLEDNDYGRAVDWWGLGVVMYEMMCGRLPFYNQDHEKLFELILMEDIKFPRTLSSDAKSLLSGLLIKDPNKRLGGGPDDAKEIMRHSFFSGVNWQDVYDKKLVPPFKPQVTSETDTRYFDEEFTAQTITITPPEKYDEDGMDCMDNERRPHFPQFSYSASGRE
# T5 sequence (Q9Y243 whole entry): as above
# T6 sequence (P31749 whole entry): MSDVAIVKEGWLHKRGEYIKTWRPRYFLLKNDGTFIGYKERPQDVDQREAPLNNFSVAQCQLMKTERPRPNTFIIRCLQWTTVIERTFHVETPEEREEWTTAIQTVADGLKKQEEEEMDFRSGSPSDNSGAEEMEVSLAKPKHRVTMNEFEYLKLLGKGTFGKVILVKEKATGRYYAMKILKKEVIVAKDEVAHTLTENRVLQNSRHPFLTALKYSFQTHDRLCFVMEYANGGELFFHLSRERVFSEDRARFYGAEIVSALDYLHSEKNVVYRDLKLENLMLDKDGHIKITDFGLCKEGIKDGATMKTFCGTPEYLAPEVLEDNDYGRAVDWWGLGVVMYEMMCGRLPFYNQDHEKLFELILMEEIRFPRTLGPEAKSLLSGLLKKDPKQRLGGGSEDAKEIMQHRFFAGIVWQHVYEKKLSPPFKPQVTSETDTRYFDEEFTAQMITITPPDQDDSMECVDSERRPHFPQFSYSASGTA
# T3 sequence (P31749 whole entry): as above
SMILES,IC50 [1] [nM],IC50 [2] [nM],IC50 [3] [nM],IC50 [4] [nM],IC50 [5] [nM],IC50 [6] [nM]
"COC(=O)N(C)[C@H]1CC[C@H](CC(=O)Nc2cnc(-c3ccc(C(C)(C)N)c(F)c3)c(-c3ccccc3)c2)CC1 [Example A28, Methyl (trans-4-(2-((6-(4-(2-aminopropan-2-yl)-3-fluorophenyl)-5-phenylpyridin-3-yl)amino)-2-oxoethyl)cyclohexyl)(methyl)carbamate]",> 30000,> 20000,> 30000,5900,1500,> 30000
"CN(C(=O)C1CC1)[C@H]1CC[C@H](CC(=O)Nc2cnc(-c3ccc(C(C)(C)N)cc3)c(-c3ccccc3)c2)CC1 [Example A29, N-(trans-4-(2-((6-(4-(2-aminopropan-2-yl)phenyl)-5-phenylpyridin-3-yl)amino)-2-oxoethyl)cyclohexyl)-N-methylcyclopropanecarboxamide]",5700,5800,> 28000,490,150,> 30000
"CC(C)(C)CC(=O)N[C@H]1CC[C@H](CC(=O)Nc2cnc(-c3ccc(C(C)(C)N)cc3)c(-c3ccccc3)c2)CC1 [Example A37, N-(trans-4-(2-((6-(4-(2-aminopropan-2-yl)phenyl)-5-phenylpyridin-3-yl)amino)-2-oxoethyl)cyclohexyl)-3,3-dimethylbutanamide]",3500,8700,> 30000,61,340,> 30000
"CC(=O)N[C@H]1CC[C@H](CC(=O)Nc2cnc(-c3ccc(C4(N)CCC4)cc3)c(-c3ccccc3)c2)CC1 [Example A38, 2-(trans-4-acetamidocyclohexyl)-N-(6-(4-(1-aminocyclobutyl)phenyl)-5-phenylpyridin-3-yl)acetamide]",190,1600,> 5700,18,120,10000
"CCCC(=O)N[C@H]1CC[C@H](CC(=O)Nc2cnc(-c3ccc(C4(N)CC4)cc3)c(-c3ccccc3)c2)CC1 [Example A41, N-(trans-4-(2-((6-(4-(1-aminocyclopropyl)phenyl)-5-phenylpyridin-3-yl)amino)-2-oxoethyl)cyclohexyl)butyramide]",370,840,3600,75,59,11000
"CC(=O)N(C(C)C)[C@H]1CC[C@H](CC(=O)Nc2cnc(-c3ccc(C(C)(C)N)cc3)c(-c3ccccc3)c2)CC1 [Example A44, N-(6-(4-(2-aminopropan-2-yl)phenyl)-5-phenylpyridin-3-yl)-2-(trans-4-(N-isopropylacetamido)cyclohexyl)acetamide]",13000,11000,> 30000,1800,440,> 30000
"CC(C)(N)c1ccc(-c2ncc(NC(=O)C[C@H]3CC[C@H](C(=O)N4CCOCC4)CC3)cc2-c2ccccc2)cc1 [Example A46, N-(6-(4-(2-aminopropan-2-yl)phenyl)-5-phenylpyridin-3-yl)-2-(trans-4-(morpholine-4-carbonyl)cyclohexyl)acetamide]",2400,6300,> 30000,1000,190,> 30000
"CC(C)(N)c1ccc(-c2ncc(NC(=O)C[C@H]3CC[C@H](C(=O)N4CCCC4)CC3)cc2-c2ccccc2)cc1 [Example A47, N-(6-(4-(2-aminopropan-2-yl)phenyl)-5-phenylpyridin-3-yl)-2-(trans-4-(pyrrolidine-1-carbonyl)cyclohexyl)acetamide]",2100,11000,> 30000,370,440,> 30000
"CC(C)(N)c1ccc(-c2cnc(NC(=O)C[C@H]3CC[C@H](N4CCCC4=O)CC3)cc2-c2ccccc2)cc1 [Example A49, N-(5-(4-(2-aminopropan-2-yl)phenyl)-4-phenylpyridin-2-yl)-2-(trans-4-(2-oxopyrrolidin-1-yl)cyclohexyl)acetamide]",3600,4400,> 30000,120,200,> 30000
"NC1(c2ccc(-c3nnc(NC(=O)C[C@H]4CC[C@H](N5CCOC5=O)CC4)cc3-c3ccccc3)cc2F)CC1 [Example A50, N-(6-(4-(1-aminocyclopropyl)-3-fluorophenyl)-5-phenylpyridazin-3-yl)-2-(trans-4-(2-oxooxazolidin-3-yl)cyclohexyl)acetamide]",2200,> 3790,> 30000,140,270,> 30000
"NC1(c2ccc(-c3cnc(NC(=O)C[C@H]4CC[C@H](N5CCOC5=O)CC4)cc3-c3ccccc3)cc2)CC1 [Example A51, N-(5-(4-(1-aminocyclopropyl)phenyl)-4-phenylpyridin-2-yl)-2-(trans-4-(2-oxooxazolidin-3-yl)cyclohexyl)acetamide]",340,2000,> 30000,42,150,> 30000
"CC(C)(N)c1ccc(-c2cnc(NC(=O)C[C@H]3CC[C@H](N4CCOC4=O)CC3)cc2-c2ccsc2)cc1 [Example A52, N-(5-(4-(2-aminopropan-2-yl)phenyl)-4-(thiophen-3-yl)pyridin-2-yl)-2-(trans-4-(2-oxooxazolidin-3-yl)cyclohexyl)acetamide]",11000,2600,> 30000,640,240,> 30000
"N[C@]1(c2ccc(-c3cnc(NC(=O)C[C@H]4CC[C@H](N5CCOC5=O)CC4)cc3-c3ccccc3)cc2)C[C@@H](F)C1 [Example A53, N-(5-(4-(trans-1-amino-3-fluorocyclobutyl)phenyl)-4-phenylpyridin-2-yl)-2-(trans-4-(2-oxooxazolidin-3-yl)cyclohexyl)acetamide]",480,5400,> 30000,39,410,> 30000
"CC(=O)N(C)[C@H]1CC[C@H](CC(=O)Nc2cc(-c3ccccc3)c(-c3ccc(C4(N)CC4)c(F)c3)nn2)CC1 [Example A54, N-(6-(4-(1-aminocyclopropyl)-3-fluorophenyl)-5-phenylpyridazin-3-yl)-2-(trans-4-(N-methylacetamido)cyclohexyl)acetamide]",6300,> 13000,> 30000,160,520,> 30000
"COC(=O)N(C)[C@H]1CC[C@H](CC(=O)Nc2cc(-c3ccccc3)c(-c3ccc(C4(N)CCC4)cc3)nn2)CC1 [Example A55, Methyl (trans-4-(2-((6-(4-(1-aminocyclobutyl)phenyl)-5-phenylpyridazin-3-yl)amino)-2-oxoethyl)cyclohexyl)(methyl)carbamate]",380,5000,> 30000,16,310,> 16000
"CC(=O)N(C)[C@H]1CC[C@H](CC(=O)Nc2cc(-c3ccccc3)c(-c3ccc([C@]4(N)C[C@H](F)C4)cc3)cn2)CC1 [Example A59, N-(5-(4-((1r,3r)-1-amino-3-fluorocyclobutyl)phenyl)-4-phenylpyridin-2-yl)-2-(trans-4-(N-methylacetamido)cyclohexyl)acetamide]",740,8000,9700,28,250,> 30000
